The assay concerns the target integrin receptors expressed on surface of U87MG glioblastoma cells (Homo sapiens, UniProt P05106+P06756). As to the kind of experiment: U87MG competition binding assay.

Bridges are numbered along the chain shown (N, C = ends). Where no end group is shown, it is not given here.

For orientation: IC50 means the midpoint of a concentration-inhibition curve. A high value points to weaker potency.

“ECESGPCCRNCKFLKEGTICKRARGDDMDDYCNGKTCDCPRNPHKGPAT (disulfide 2-11, 7-32, 8-37, 20-39 (inferred)) [echistatin]” returned an IC50 of 3.3 ± 0.6 nM.
